Measured values from ChEMBL document CHEMBL1138076, “Synthesis and biological evaluation of lisofylline (LSF) analogs as a potential treatment for Type 1 diabetes” (Bioorg Med Chem Lett, 2006).
The source made the active and inactive calls. The rule behind the calls is not given here.

What was measured:
[1] = Stability in human liver microsomes at […] at pH 7.4; type: ADME, Microsome; details: read-out: Stability
Pancreatic beta cell = assay: Protection of cytokine-induced death of pancreatic beta cells at 0.1 uM; type: functional, cell-based; details: Mus musculus
INS1 = assay: Secretion of insulin in INS1 cells at 20 uM; type: functional, cell-based; details: Rattus norvegicus
[2] = Half life in human liver; type: ADME, organism-based

SMILES: C[C@@H](O)CCCCOc1nn(CCCC[C@@H](C)O)c(=O)c2ccccc12
- remaining [1]: 75%
- Activity (Pancreatic beta cell): Active
- Activity (INS1): Active

SMILES: Cc1cnc2n(C)c(=O)n(CCCC[C@@H](C)O)c(=O)n12
- remaining [1]: 82%
- Activity (Pancreatic beta cell): Active
- Activity (INS1): Active

SMILES: C[C@@H](O)CCCCn1c(=O)c2c(ncn2C)n(C)c1=O [LISOFYLLINE]
- Activity (Pancreatic beta cell): Active
- half-life [2]: < 3 min
- Activity (INS1): Active

SMILES: CC(C)NCC(O)COc1cccc2ccccc12 (configuration not stated) [PROPRANOLOL]
- remaining [1]: 34%

SMILES: C[C@]12CC[C@H]3[C@@H](CCC4=CC(=O)CC[C@@]43C)[C@@H]1CC[C@@H]2O [TESTOSTERONE]
- remaining [1]: 9%

SMILES: CC(=O)CC(c1ccccc1)c1c(O)c2ccccc2oc1=O (configuration not stated) [WARFARIN]
- remaining [1]: 105%
